# Results taken from patent publication EP0153845A2, “CRF analogs” (THE SALK INSTITUTE FOR BIOLOGICAL STUDIES, priority 1984, dated 1985).
# Square brackets hold non-standard residues; d marks the D form. Peptide text beside a SMILES is read from it. Nle = CCCC[C@H](N)C(=O)O
# Molecular target: T1, cultured rat pituitary cells (Rattus norvegicus, UniProt P35353)
# T1 sequence (P35353 24-415): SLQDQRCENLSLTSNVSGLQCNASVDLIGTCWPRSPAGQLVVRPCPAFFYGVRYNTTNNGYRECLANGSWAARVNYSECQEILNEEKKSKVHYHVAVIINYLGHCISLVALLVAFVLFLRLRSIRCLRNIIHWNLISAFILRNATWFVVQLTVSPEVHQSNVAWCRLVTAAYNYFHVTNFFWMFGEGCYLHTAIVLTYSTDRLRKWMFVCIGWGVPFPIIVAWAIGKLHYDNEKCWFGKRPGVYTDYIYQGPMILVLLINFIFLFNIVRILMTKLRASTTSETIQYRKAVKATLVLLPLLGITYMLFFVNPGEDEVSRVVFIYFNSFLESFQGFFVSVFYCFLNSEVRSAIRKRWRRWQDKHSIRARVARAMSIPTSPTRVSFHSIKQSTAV
# Test: Block of ACTH and β-endorphin secretion by cultured rat pituitary cells by CRF antagonists (procedure of Example XLIII)
# Assay type: cell-based
# Conditions: general procedure of Example XLIII
# Method: The effectiveness of synthetic CRF antagonists to block the secretion of ACTH and B-endorphin by cultured rat pituitary cells is measured using the procedure as generally set forth in Vale et al., Endocrinology, 91, 562 (1972). In vivo testing is carried out using the general procedure set forth in C. Rivier et al., Science, 218, 377 (1982).
row,Structure (SMILES),secretion of ACTH and β-END-LI (antagonist test)
1,"CCCC[C@H](N)C(=O)N[C@@H](CC(=O)O)C(=O)N[C@@H](CC(C)C)C(=O)N[C@@H](CO)C(=O)N[C@@H](Cc1ccccc1)C(=O)N[C@@H](Cc1c[nH]cn1)C(=O)N[C@@H](CC(C)C)C(=O)N[C@@H](CC(C)C)C(=O)N[C@@H](CCCNC(=N)N)C(=O)N[C@@H](CCC(=O)O)C(=O)N[C@H](C(=O)N[C@@H](CC(C)C)C(=O)N[C@@H](CCC(=O)O)C(=O)N[C@@H](CCSC)C(=O)N[C@@H](C)C(=O)N[C@@H](CCCNC(=N)N)C(=O)N[C@@H](C)C(=O)N[C@@H](CCC(=O)O)C(=O)N[C@@H](CCC(N)=O)C(=O)N[C@@H](CC(C)C)C(=O)N[C@@H](C)C(=O)N[C@@H](CCC(N)=O)C(=O)N[C@@H](CCC(N)=O)C(=O)N[C@@H](C)C(=O)N[C@@H](Cc1c[nH]cn1)C(=O)N[C@@H](CC(C)C)C(=O)N[C@@H](CC(N)=O)C(=O)N[C@@H](CCCNC(=N)N)C(=O)N[C@@H](CCCCN)C(=O)N[C@@H](CC(C)C)C(=O)N[C@@H](CCSC)C(=O)N[C@@H](CCC(=O)O)C(=O)N[C@H](C(=O)N[C@H](C(N)=O)[C@@H](C)CC)[C@@H](C)CC)C(C)C [[Nle^8, Ser^ll, Leu^33]-hCRF(8-41)] (H-[Nle]DLSFHLLREVLEMARAEQLAQQAHLNRKLMEII-NH2)",inhibits
2,"CCCC[C@H](NC(=O)[C@H](CCC(=O)O)NC(=O)[C@H](CC(C)C)NC(=O)[C@H](CCCC)NC(=O)[C@H](CCC(=O)O)NC(=O)[C@H](CCCNC(=N)N)NC(=O)[C@H](CC(C)C)NC(=O)[C@H](CC(C)C)NC(=O)[C@H](Cc1c[nH]cn1)NC(=O)[C@H](Cc1ccccc1)NC(=O)[C@@H](NC(=O)[C@H](CC(C)C)NC(=O)[C@H](CC(=O)O)NC(=O)[C@@H](N)CC(C)C)[C@@H](C)O)C(=O)N[C@@H](C)C(=O)N[C@@H](CCCCN)C(=O)N[C@@H](C)C(=O)N[C@@H](CCC(=O)O)C(=O)N[C@@H](CCC(N)=O)C(=O)N[C@@H](CCC(=O)O)C(=O)N[C@@H](C)C(=O)N[C@@H](CCC(=O)O)C(=O)N[C@@H](CCC(N)=O)C(=O)N[C@@H](C)C(=O)N[C@@H](C)C(=O)N[C@@H](CC(C)C)C(=O)N[C@@H](CC(N)=O)C(=O)N[C@@H](CCCNC(=N)N)C(=O)N[C@@H](CC(C)C)C(=O)N[C@@H](CC(C)C)C(=O)N[C@@H](CC(C)C)C(=O)N[C@@H](CCC(=O)O)C(=O)N[C@@H](CCC(=O)O)C(=O)N[C@@H](C)C(N)=O [[Nle^18,21]-AHC(8-41)] (H-LDLTFHLLRE[Nle]LE[Nle]AKAEQEAEQAALNRLLLEEA-NH2)",inhibits
3,"CCCC[C@H](NC(=O)[C@H](CCC(=O)O)NC(=O)[C@H](CC(C)C)NC(=O)[C@H](CCCC)NC(=O)[C@H](CCC(=O)O)NC(=O)[C@H](CCCNC(=N)N)NC(=O)[C@H](CC(C)C)NC(=O)[C@H](CC(C)C)NC(=O)[C@H](Cc1c[nH]cn1)NC(=O)[C@H](Cc1ccccc1)NC(=O)[C@@H](NC(=O)[C@@H](N)CC(C)C)[C@@H](C)O)C(=O)N[C@@H](C)C(=O)N[C@@H](CCCCN)C(=O)N[C@@H](C)C(=O)N[C@@H](CCC(=O)O)C(=O)N[C@@H](CCC(N)=O)C(=O)N[C@@H](CCC(=O)O)C(=O)N[C@@H](C)C(=O)N[C@@H](CCC(=O)O)C(=O)N[C@@H](CCC(N)=O)C(=O)N[C@@H](C)C(=O)N[C@@H](C)C(=O)N[C@@H](CC(C)C)C(=O)N[C@@H](CC(N)=O)C(=O)N[C@@H](CCCNC(=N)N)C(=O)N[C@@H](CC(C)C)C(=O)N[C@@H](CC(C)C)C(=O)N[C@@H](CC(C)C)C(=O)N[C@@H](CCC(=O)O)C(=O)N[C@@H](CCC(=O)O)C(=O)N[C@@H](C)C(N)=O [[Nle^18,21]-AHC(10-41)] (H-LTFHLLRE[Nle]LE[Nle]AKAEQEAEQAALNRLLLEEA-NH2)",inhibits
